Measured values taken from patent US20220378756A1, “ACTIVATING PYRUVATE KINASE R” (FORMA Therapeutics, Inc., priority 2019, published 2022).

System: 2,3-DPG, ATP and p50 in blood
Test: Phase 1 SAD/MAD, healthy volunteers: pharmacodynamics
Type: in vivo, human
Settings: for median reduction in the concentration of 2,3-DPG, relative to baseline: HV MAD; for Median Percentage Change in 2,3-DPG Levels / Median Percentage Change in ATP Levels (Day 14) / Mean Absolute Change in p50 (mmHg) (Day 14): HV; for Mean Absolute Change in p50 (mmHg) (Day 14): vs baseline
Text: This is a first-in-human (FIH), Phase 1 study of Compound 1 that will characterize the safety, PK, and PD of Compound 1 after a single dose and after repeated dosing first in healthy adult volunteers and then in adolescents or adults with sickle cell disease. Initially, a dose range of Compound 1 in single ascending dose (SAD) escalation cohorts will be explored in healthy subjects. Enrollment of healthy subjects into 2-week multiple ascending dose (MAD) escalation cohorts will be initiated once the safety and PK from at least two SAD cohorts is available to inform the doses for the 2-week MAD portion of the study. The MAD cohorts will then run in parallel to the single dose cohorts. A single dose cohort is planned to understand food effects (FE) on the PK of Compound 1. […] Multiple dose studies in SCD subjects will then be initiated upon completion of MAD studies in healthy volunteers. Compound 1 will be administered in 25 mg and 100 mg tablets delivered orally.
In this study, SAD/MAD cohorts are randomized (3 to 1) to receive Compound 1 or placebo (P). Compound 1 was evaluated first in 4 healthy SAD cohorts and 4 healthy MAD (14-day dosing period) cohorts. Based on the safety, and PK/PD profile from HS, Compound 1 is then evaluated in 1 SCD SAD cohort and 2 SCD MAD cohorts. Specifically, based on the safety and pharmacokinetic/pharmacodynamics (PK/PD) profile in healthy volunteer studies, Compound 1 is evaluated in patients (pts) with SCD, first in a single dose (SD or SAD) cohort and then in multiple-dose (MD or MAD) cohorts (14-day and 12-week). Safety assessments include AEs, vital signs, ECGs and laboratory parameters. PK/PD blood sampling was performed on Day 1 (SAD/MAD) and Day 14 (MAD) and up to 72 h after the last dose and at the end-of-study visit. PD parameters included 2,3-DPG, ATP, and p50 in all cohorts with additional PD studies (including oxygen scan) performed only in the SCD cohorts. PD parameters included 2,3-DPG, ATP, p50, RBC deformability with controlled deoxygenation and reoxygenation (Lorrca® oxygen scan) and varying osmolality (Lorrca® osmoscan)). To maintain study blind, pt identifiers were removed when needed.
Four healthy SAD cohorts were evaluated at doses of 200, 400, 700, and 1000 mg, and four healthy MAD cohorts received 200 to 600 mg total daily doses for 14 days at QD or BID dosing (100 mg BID, 200 mg BID, 300 mg BID, and 400 mg QD). In the food effect (FE) cohort, 10 healthy subjects received 200 mg of Compound 1 QD with and without food.
In the SAD cohorts, the subjects' blood 2,3-DPG levels were measured periodically after dosing by a qualified LC-MS/MS method for the quantitation of 2,3-DPG in blood. Decreased 2,3-DPG blood levels were observed 6 hours following a single dose of Compound 1 at all dose levels (earlier timepoints were not collected). Maximum decreases in 2,3-DPG levels generally occurred ˜24 hours after the first dose with the reduction sustained ˜48-72 hr postdose. Table 16 reports the median percentage change in 2,3-DPG blood levels, relative to baseline, measured over time in healthy volunteers after a single dose of Compound 1 (200 mg, 400 mg, 700 mg, or 1000 mg) or placebo. Accordingly, the median reduction in the concentration of 2,3-DPG, relative to baseline, was at least about […] at all dose levels tested 24 hours after administration of the single dose.
In the MAD cohorts, the subjects' blood 2,3-DPG levels were measured periodically after dosing by a qualified LC-MS/MS method for the quantitation of 2,3-DPG in blood. The maximum decrease in 2,3-DPG on Day 14 was 55% from baseline (median). […] Table 18 reports the median percentage change in 2,3-DPG blood levels, relative to baseline, measured over time after the first dose on days 1 and 14 in healthy volunteers who received daily doses of Compound 1 (100 mg BID, 200 mg BID, or 300 mg BID) or placebo for 14 days. […]

[1] = 100 mg BID, Day 14, 0 h after first daily dose
[2] = 100 mg BID, Day 14, 6 h after first daily dose
[3] = 100 mg BID, Day 14, 8 h after first daily dose
[4] = 100 mg BID, Day 14, 12 h after first daily dose
[5] = 100 mg BID, Day 14, 16 h after first daily dose
[6] = 100 mg BID, Day 14, 24 h after first daily dose
[7] = 100 mg BID, Day 14, 48 h after first daily dose
[8] = 100 mg BID, Day 14, 72 h after first daily dose
[9] = 200 mg BID, Day 14, 0 h after first daily dose
[10] = 200 mg BID, Day 14, 6 h after first daily dose
[11] = 200 mg BID, Day 14, 8 h after first daily dose
[12] = 200 mg BID, Day 14, 12 h after first daily dose
[13] = 200 mg BID, Day 14, 16 h after first daily dose
[14] = 200 mg BID, Day 14, 24 h after first daily dose
[15] = 200 mg BID, Day 14, 48 h after first daily dose
[16] = 200 mg BID, Day 14, 72 h after first daily dose

For `O=C([C@H](CO)c1ccccc1)N1CC2=C(C1)CN(S(=O)(=O)c1cnc3c(c1)OCCO3)C2` (single isomer, unassigned) [Compound 1], the “maximum decrease in 2,3-DPG from baseline (median)” value (HV MAD cohorts, Day 14) was 55%, the “median reduction in the concentration of 2,3-DPG, relative to baseline” value (all dose levels, 24 hours after first dose on day 1) was “at least 25%” and the “median reduction in the concentration of 2,3-DPG, relative to baseline” value (all dose levels, 24 hours after first dose on day 14) was “at least 40%”. For the same molecule, the “median reduction of p50” value (HV SAD, all dose levels, 24 hours after a single dose) was 3-5 mmHg, the “Median Percentage Change in 2,3-DPG Levels” value (100 mg BID, Day 1, 0 h after first daily dose) was 0.0% and the “Median Percentage Change in 2,3-DPG Levels” value (100 mg BID, Day 1, 6 h after first daily dose) was −16.1%. For the same molecule, the “Median Percentage Change in 2,3-DPG Levels” value (100 mg BID, Day 1, 8 h after first daily dose) was −12.1%, the “Median Percentage Change in 2,3-DPG Levels” value (100 mg BID, Day 1, 12 h after first daily dose) was −18.1% and the “Median Percentage Change in 2,3-DPG Levels” value (100 mg BID, Day 1, 16 h after first daily dose) was −18.4%. The “Median Percentage Change in 2,3-DPG Levels” value (100 mg BID, Day 1, 24 h after first daily dose) was −27.8%, the “Median Percentage Change in 2,3-DPG Levels” value [1] was −42.0% and the “Median Percentage Change in ATP Levels (Day 14)” value [1] was 41.5%. For the same molecule, the “Median Percentage Change in 2,3-DPG Levels” value [2] was −44.3%, the “Median Percentage Change in ATP Levels (Day 14)” value [2] was 43.8% and the “Median Percentage Change in 2,3-DPG Levels” value [3] was −44.7%. The “Median Percentage Change in ATP Levels (Day 14)” value [3] was 47.8%, the “Median Percentage Change in 2,3-DPG Levels” value [4] was −43.6% and the “Median Percentage Change in ATP Levels (Day 14)” value [4] was 45.4%. For the same molecule, the “Median Percentage Change in 2,3-DPG Levels” value [5] was −43.9%, the “Median Percentage Change in ATP Levels (Day 14)” value [5] was 44.8% and the “Median Percentage Change in 2,3-DPG Levels” value [6] was −44.1%. For the same molecule, the “Median Percentage Change in ATP Levels (Day 14)” value [6] was 55.0%, the “Median Percentage Change in 2,3-DPG Levels” value [7] was −34.7% and the “Median Percentage Change in ATP Levels (Day 14)” value [7] was 52.2%. The “Median Percentage Change in 2,3-DPG Levels” value [8] was −20.2%, the “Median Percentage Change in ATP Levels (Day 14)” value [8] was 49.2% and the “Mean Absolute Change in p50 (mmHg) (Day 14)” value (200 mg BID for 14 days) was −4.14 mmHg. For the same molecule, the “Median Percentage Change in 2,3-DPG Levels” value (200 mg BID, Day 1, 0 h after first daily dose) was 0.0%, the “Median Percentage Change in 2,3-DPG Levels” value (200 mg BID, Day 1, 6 h after first daily dose) was −13.1% and the “Median Percentage Change in 2,3-DPG Levels” value (200 mg BID, Day 1, 8 h after first daily dose) was −22.3%. The “Median Percentage Change in 2,3-DPG Levels” value (200 mg BID, Day 1, 12 h after first daily dose) was −23.1%, the “Median Percentage Change in 2,3-DPG Levels” value (200 mg BID, Day 1, 16 h after first daily dose) was −33.9% and the “Median Percentage Change in 2,3-DPG Levels” value (200 mg BID, Day 1, 24 h after first daily dose) was −43.5%. For the same molecule, the “Median Percentage Change in 2,3-DPG Levels” value [9] was −48.2%, the “Median Percentage Change in ATP Levels (Day 14)” value [9] was 55.3% and the “Median Percentage Change in 2,3-DPG Levels” value [10] was −48.5%. For the same molecule, the “Median Percentage Change in ATP Levels (Day 14)” value [10] was 48.1%, the “Median Percentage Change in 2,3-DPG Levels” value [11] was −44.3% and the “Median Percentage Change in ATP Levels (Day 14)” value [11] was 58.4%. For the same molecule, the “Median Percentage Change in 2,3-DPG Levels” value [12] was −42.2%, the “Median Percentage Change in ATP Levels (Day 14)” value [12] was 56.2% and the “Median Percentage Change in 2,3-DPG Levels” value [13] was −42.9%. For the same molecule, the “Median Percentage Change in ATP Levels (Day 14)” value [13] was 57.0%, the “Median Percentage Change in 2,3-DPG Levels” value [14] was −44.3% and the “Median Percentage Change in ATP Levels (Day 14)” value [14] was 64.0%. The “Median Percentage Change in 2,3-DPG Levels” value [15] was −38.7%, the “Median Percentage Change in ATP Levels (Day 14)” value [15] was 58.9% and the “Median Percentage Change in 2,3-DPG Levels” value [16] was −20.2%. For the same molecule, the “Median Percentage Change in ATP Levels (Day 14)” value [16] was 54.0%, the “Mean Absolute Change in p50 (mmHg) (Day 14)” value (300 mg BID for 14 days) was −5.34 mmHg and the “Median Percentage Change in 2,3-DPG Levels” value (300 mg BID, Day 1, 0 h after first daily dose) was 0.0%. The “Median Percentage Change in 2,3-DPG Levels” value (300 mg BID, Day 1, 6 h after first daily dose) was −18.8%, the “Median Percentage Change in 2,3-DPG Levels” value (300 mg BID, Day 1, 8 h after first daily dose) was −23.8% and the “Median Percentage Change in 2,3-DPG Levels” value (300 mg BID, Day 1, 12 h after first daily dose) was −31.6%.
